Values after ≈ are worked out from the molar mass of the structure shown.
How the values were obtained:
[1] = test system: Liver; details: mouse, microsomes, 10 min, 300 µM
Description: Metabolic stability of the compound in mouse liver microsomes assessed as stability rate per mg of protein at 300 uM after 10 mins by LC-MS/MS analysis in presence of NADPH

[2] = molecular target: T1, 11-beta-hydroxysteroid dehydrogenase 1 (Mus musculus, UniProt P50172); experiment: Inhibition of mouse 11beta-HSD1
[3] = test system: Liver microsomes; details: rat, 10 min, 300 µM
Description: Metabolic stability of the compound in rat liver microsomes assessed as stability rate per mg of protein at 300 uM after 10 mins by LC-MS/MS analysis in presence of NADPH

[4] = test system: Liver microsomes; details: human, 10 min, 300 µM
Description: Metabolic stability of the compound in human liver microsomes assessed as stability rate per mg of protein at 300 uM after 10 mins by LC-MS/MS analysis in presence of NADPH

[5] = Aqueous solubility of the compound; type: physicochemical
[6] = molecular target: T1, 11-beta-hydroxysteroid dehydrogenase 1; experiment: Inhibition of 11beta-HSD1 in mouse 3T3L1 cells; type: cell-based, 3T3-L1
[7] = test system: UDP-glucuronosyltransferase (Mus musculus); experiment: in vitro; details: human, liver microsomes
[8] = Tmax in Balb/C mouse at 10 umol/kg, po; type: ADME, organism-based; details: in vivo
[9] = Cmax in Balb/C mouse at 10 umol/kg, po; type: ADME, organism-based; design: dose 10 umol/kg, route oral; details: in vivo
[10] = AUC (0 to 8 hrs) in Balb/C mouse at 10 umol/kg, po; type: ADME, organism-based; design: time < 8 hr, dose 10 umol/kg, route oral; details: plasma
[11] = Inhibition of cynomolgus monkey 11beta-HSD1; design: species or system Macaca fascicularis
[12] = molecular target: T2, 11-beta-hydroxysteroid dehydrogenase 1 (Homo sapiens, UniProt P28845); experiment: Inhibition of 11beta-HSD1 in human HEK cells; type: cell-based, HEK293
T2 sequence (P28845 whole entry): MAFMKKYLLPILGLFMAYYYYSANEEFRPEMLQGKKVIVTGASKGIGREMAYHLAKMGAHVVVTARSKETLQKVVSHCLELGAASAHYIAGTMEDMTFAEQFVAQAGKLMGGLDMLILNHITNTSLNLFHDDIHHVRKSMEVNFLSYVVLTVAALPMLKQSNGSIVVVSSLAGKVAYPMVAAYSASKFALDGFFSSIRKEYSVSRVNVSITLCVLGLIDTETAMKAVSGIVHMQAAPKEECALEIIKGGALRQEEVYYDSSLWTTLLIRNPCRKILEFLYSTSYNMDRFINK

[13] = molecular target: T2, 11-beta-hydroxysteroid dehydrogenase 1; experiment: Inhibition of human 11beta-HSD1 expressed in HEK293 cells assessed as conversion of [3H]-cortisone to [3H]-cortisol by scintillation plate reader; type: cell-based
[14] = test system: 11β-HSD1 (Mus musculus); details: Homo sapiens
[15] = molecular target: T3, 11-beta-hydroxysteroid dehydrogenase type 2 (Homo sapiens, UniProt P80365); experiment: Inhibition of 11beta-HSD2
T3 sequence (P80365 whole entry): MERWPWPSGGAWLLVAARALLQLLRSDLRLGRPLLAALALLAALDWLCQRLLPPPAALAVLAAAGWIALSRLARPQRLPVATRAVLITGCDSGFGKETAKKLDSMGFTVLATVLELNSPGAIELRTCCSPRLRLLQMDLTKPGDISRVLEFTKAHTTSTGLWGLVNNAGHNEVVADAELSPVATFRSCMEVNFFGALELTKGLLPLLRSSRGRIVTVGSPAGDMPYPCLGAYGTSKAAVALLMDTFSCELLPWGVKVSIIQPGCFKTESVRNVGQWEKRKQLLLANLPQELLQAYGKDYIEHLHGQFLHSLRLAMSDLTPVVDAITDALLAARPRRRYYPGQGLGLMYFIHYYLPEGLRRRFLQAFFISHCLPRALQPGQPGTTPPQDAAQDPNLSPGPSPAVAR

T1 sequence (P50172 whole entry): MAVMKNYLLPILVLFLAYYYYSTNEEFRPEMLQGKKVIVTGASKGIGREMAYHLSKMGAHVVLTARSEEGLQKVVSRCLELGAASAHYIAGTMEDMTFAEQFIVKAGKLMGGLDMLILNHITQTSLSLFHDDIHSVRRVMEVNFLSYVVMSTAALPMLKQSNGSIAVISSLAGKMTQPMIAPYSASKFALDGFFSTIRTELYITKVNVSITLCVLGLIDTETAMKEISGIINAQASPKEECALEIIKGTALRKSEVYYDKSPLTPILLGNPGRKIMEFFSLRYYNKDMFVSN

| Compound | Stability [1] | IC50 [2] | Stability [3] | Stability [4] | solubility [5] | other results |
| --- | --- | --- | --- | --- | --- | --- |
| N#Cc1c(O)nc(Sc2ccccc2Cl)c2c1CCCC2 | 0.17 nmol/min | 95 nM | 0.15 nmol/min | 0.07 nmol/min | 1 µg/mL (≈ 3.16 µM) | – |
| N#Cc1ncccc1CSc1nc(O)c(C#N)c2c1COCC2 | 0.01 nmol/min | 105 nM | 0 nmol/min | 0 nmol/min | 238 µg/mL (≈ 734 µM) | IC50 [6]: 3970 nM; half-life [7]: 0.05 h; Tmax [8]: 4 h; Cmax [9]: 500 nM; AUC(0-t) at 8 h [10]: 2.9 µM·h |
| N#Cc1c(O)nc(SCc2ccccc2Cl)c2c1CCCC2 | 0.17 nmol/min | – | 0.16 nmol/min | 0.09 nmol/min | 6 µg/mL (≈ 18.1 µM) | IC50 [11]: 1 nM; half-life [7]: < 0.0167 h; Tmax [8]: 1 h; Cmax [9]: 30 nM; AUC(0-t) at 8 h [10]: 0.2 µM·h |
| N#Cc1ccc2c(C#N)c(O)nc(SCc3ccccc3Cl)c2c1 | 0.05 nmol/min | 62 nM | 0.04 nmol/min | 0.25 nmol/min | 8 µg/mL (≈ 22.7 µM) | – |
| N#Cc1c2c(c(-c3ccccc3)[nH]c1=O)CCCC2 | – | 4350 nM | – | – | – | – |
| N#Cc1ccc(-c2c(O)nc(SCc3ccccc3Cl)c3c2CCCC3)cc1 | 0.18 nmol/min | 3830 nM | 0.3 nmol/min | 0.19 nmol/min | 1 µg/mL (≈ 2.46 µM) | – |
| N#Cc1c(O)nc(SCc2ccccc2Cl)nc1-c1ccccc1 | – | 58 nM | – | – | – | IC50 [6]: 2850 nM; IC50 [11]: 53 nM; half-life [7]: > 3.33 h; IC50 [12]: 1100 nM; Tmax [8]: 1 h; Cmax [9]: 7100 nM; IC50 [13]: 27 nM; AUC(0-t) at 8 h [10]: 37 µM·h; IC50 [14]: 58 nM |
| N#Cc1c(O)nc(SCc2ccccc2Cl)c2c1CCN(Cc1ccccc1)C2 | 0.04 nmol/min | 4350 nM | 0 nmol/min | 0.08 nmol/min | – | – |
| Oc1nc(SCc2ccccc2Cl)c2c(c1Br)CCCC2 | – | 2270 nM | – | – | – | – |
| Oc1cc2c(c(SCc3ccccc3Cl)n1)CCCC2 | 0.3 nmol/min | 9250 nM | 0.3 nmol/min | 0.27 nmol/min | – | – |
| N#Cc1c(O)nc(SCc2ccccc2)c2c1-c1ccccc1CC2 | 0 nmol/min | 50 nM | 0.07 nmol/min | 0.04 nmol/min | – | IC50 [15]: 386 nM; IC50 [13]: 5 nM |
| N#Cc1c(O)nc(S(=O)(=O)Cc2ccccc2Cl)c2c1CCCC2 | 0.12 nmol/min | 267 nM | 0.14 nmol/min | 0.07 nmol/min | – | – |
| N#Cc1c(O)nc(SCc2ccccc2-c2ccccc2)c2c1CCCC2 | – | 145 nM | – | – | – | – |

More lines, main results first:

| Stability [1] | IC50 [2] | Stability [3] | Stability [4] | solubility [5] | Compound | other results |
| --- | --- | --- | --- | --- | --- | --- |
| 0.08 nmol/min | 10 nM | 0.05 nmol/min | 0.12 nmol/min | – | N#Cc1c(=O)[nH]c(SCc2ccccc2Cl)c2c(F)cccc12 | – |
| – | 39 nM | – | – | 1 µg/mL (≈ 3.02 µM) | N#Cc1c(O)nc(SCc2cccc(Cl)c2)c2c1CCCC2 | – |
| 0.3 nmol/min | 25 nM | 0.3 nmol/min | 0.09 nmol/min | 1 µg/mL (≈ 3.02 µM) | N#Cc1c(O)nc(SCc2ccc(Cl)cc2)c2c1CCCC2 | – |
| 0.23 nmol/min | 6 nM | 0.25 nmol/min | 0.15 nmol/min | 7 µg/mL (≈ 21.8 µM) | N#Cc1ccccc1CSc1nc(O)c(C#N)c2c1CCCC2 | – |
| 0.07 nmol/min | 21 nM | 0.04 nmol/min | 0.12 nmol/min | 8 µg/mL (≈ 24 µM) | N#Cc1c(O)nc(SCc2ccccc2Cl)c2c1CCOC2 | – |
| 0 nmol/min | 7 nM | 0.04 nmol/min | 0.09 nmol/min | 1 µg/mL (≈ 2.9 µM) | N#Cc1c(O)nc(SCc2ccccc2Cl)c2cc(F)ccc12 | IC50 [6]: 2250 nM; Tmax [8]: 4 h; Cmax [9]: 2900 nM; AUC(0-t) at 8 h [10]: 15 µM·h |
| 0.1 nmol/min | 14 nM | 0.05 nmol/min | 0.12 nmol/min | – | N#Cc1c(=O)[nH]c(SCc2ccccc2Cl)c2ccc(F)cc12 | – |
| 0.16 nmol/min | 33 nM | 0.24 nmol/min | 0 nmol/min | – | N#Cc1c(O)nc(SCC2CCC2)c2c1CCCC2 | – |
| 0 nmol/min | 3 nM | Unstable | 0 nmol/min | 1 µg/mL (≈ 2.74 µM) | N#Cc1c2c(c(SCc3c(Cl)cccc3Cl)[nH]c1=O)CCCC2 | – |
| 0.12 nmol/min | 9 nM | Unstable | 0.03 nmol/min | – | N#Cc1ccc(F)c(CSc2nc(O)c(C#N)c3c2CCCC3)c1 | – |
| 0.2 nmol/min | 19 nM | 0.23 nmol/min | 0.17 nmol/min | 1 µg/mL (≈ 3.06 µM) | N#Cc1c(O)nc(SCc2ccccc2Cl)c2ccccc12 | – |
| 0.11 nmol/min | 10 nM | 0.19 nmol/min | 0 nmol/min | 32 µg/mL (≈ 85.5 µM) | CS(=O)(=O)c1ccccc1CSc1nc(O)c(C#N)c2c1CCCC2 | – |
| Unstable | 6 nM | Unstable | Unstable | 1 µg/mL (≈ 3.18 µM) | N#Cc1c(O)nc(OCc2ccccc2Cl)c2c1CCCC2 | – |
| 0.08 nmol/min | 7 nM | 0.13 nmol/min | 0.24 nmol/min | – | N#Cc1c(O)nc(SCc2ccccc2Cl)c2cccc(F)c12 | – |
| 0.27 nmol/min | 6 nM | 0.24 nmol/min | 0.18 nmol/min | 1 µg/mL (≈ 2.9 µM) | N#Cc1c(O)nc(SCCc2ccccc2Cl)c2c1CCCC2 | – |
| – | 9 nM | – | – | – | COc1ccccc1CSc1nc(O)c(C#N)c2c1CCCC2 | – |
| 0.05 nmol/min | 10 nM | 0.05 nmol/min | 0.04 nmol/min | 38 µg/mL (≈ 118 µM) | N#Cc1ncccc1CSc1nc(O)c(C#N)c2c1CCCC2 | – |
| 0.02 nmol/min | 24 nM | 0.02 nmol/min | 0 nmol/min | 3 µg/mL (≈ 8.92 µM) | N#Cc1ncccc1CSc1nc(O)c(C#N)c2ccc(F)cc12 | – |
| – | 16 nM | – | – | – | N#Cc1c(O)nc(SCc2ccccc2)c2c1CCCC2 | – |
| 0.02 nmol/min | 21 nM | 0.04 nmol/min | 0.05 nmol/min | 2 µg/mL (≈ 6.08 µM) | N#Cc1c(=O)[nH]c(OCc2ccccc2Cl)c2cc(F)ccc12 | IC50 [6]: 2160 nM; Tmax [8]: 4 h; Cmax [9]: 2300 nM; AUC(0-t) at 8 h [10]: 12 µM·h |
